This note sets out measurements from publication PMC5494547 (2015).

The subject of test [1] is MBA1 (DNA, aptamer) TACACTGGGGAGTATTGCGGAGGAAGTGTA
The test can be described thus: circular dichroism. The note with it: 1 µM MBA1, 50 mM ATP; quadruplex bands at 265 and 295 nm.

The test system of test [2] is MBA3 (DNA, aptamer) GCGCGCGGGGAGTATTGCGGAGGAGCGCGC
Description: circular dichroism. Particulars: CD unchanged by PPFP-Br; tighter folded G-quadruplex than ATP/MBA1. On the technique in general: Circular dichroism is the unequal absorption of left and right circularly polarised light.

As to `Nc1ncnc2c1ncn2[C@@H]1O[C@H](COP(=O)(O)OP(=O)(O)OP(=O)(O)O)[C@@H](O)[C@H]1O`, the binding entry in test [1] and in test [2] was “yes” each time.
